Experimental data from patent US20240246937A1 (MERCK SHARP & DOHME LLC, priority 2021, published 2024).

Each molecule was assayed against recombinant IL4I1 (Homo sapiens (Human), UniProt Q96RQ9) (assay: IL4I1 Enzymatic Assay (Amplex Red/HRP coupled fluorescence detection of H2O2)). Details: 240 min; recombinant IL4I1, four-hour pre-incubation with compound.
Type: biochemical
How it was run: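 Ten-point, 1:3 compound titrations were fitted by four-parameter sigmoidal regression to give EC50. Resorufin fluorescence (544/590 nm) from Amplex Red/HRP-coupled H2O2 detection was read 120 min after adding 1 mM each aromatic amino acid to 1 nM IL4I1, following a 4 h compound pre-incubation in pH 7.0 Hepes buffer.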

Sequence of recombinant IL4I1 (Q96RQ9 22-567): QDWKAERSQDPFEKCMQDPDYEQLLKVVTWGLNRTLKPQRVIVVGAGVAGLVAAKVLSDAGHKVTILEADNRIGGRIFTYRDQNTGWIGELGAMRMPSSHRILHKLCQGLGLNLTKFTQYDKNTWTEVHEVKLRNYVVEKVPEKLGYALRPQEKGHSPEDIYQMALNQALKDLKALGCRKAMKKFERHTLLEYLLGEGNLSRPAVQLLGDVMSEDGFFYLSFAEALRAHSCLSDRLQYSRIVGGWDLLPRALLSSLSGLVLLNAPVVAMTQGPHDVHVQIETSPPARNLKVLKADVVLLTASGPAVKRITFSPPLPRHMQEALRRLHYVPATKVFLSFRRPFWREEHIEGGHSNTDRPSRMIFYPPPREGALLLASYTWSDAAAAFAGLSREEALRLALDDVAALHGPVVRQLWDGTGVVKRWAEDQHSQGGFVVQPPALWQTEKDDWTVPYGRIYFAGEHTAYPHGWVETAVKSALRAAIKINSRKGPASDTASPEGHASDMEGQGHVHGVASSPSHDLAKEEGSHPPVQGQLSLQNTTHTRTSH

EC50 [nM]	Compound
25	O=c1c(=O)n(C23CC(C2)C3)ccn1Cc1ccc(-n2cccn2)cn1 [Example 382, 1-((5-(1H-pyrazol-1-yl)pyridin-2-yl)methyl)-4-(bicyclo[1.1.1]pentan-1-yl)-1,4-dihydropyrazine-2,3-dione]
3	O=c1c(=O)n([C@H]2C[C@H](c3ccccc3)C2)ccn1Cc1nnc(-c2ccccc2)s1 [Example 47, 1-((5-phenyl-1,3,4-thiadiazol-2-yl)methyl)-4-((trans)-3-phenylcyclobutyl)-1,4-dihydropyrazine-2,3-dione]
29	CC1(n2ccn(Cc3ccc(-n4ccnn4)nn3)c(=O)c2=O)CC1 [Example 334, 1-((6-(1H-1,2,3-triazol-1-yl)pyridazin-3-yl)methyl)-4-(1-methylcyclopropyl)-1,4-dihydropyrazine-2,3-dione]
5	O=c1c(=O)n(C2CCCC2)ccn1Cc1cc(-c2ccccc2F)on1 [Example 61, 1-cyclopentyl-4-((5-(2-fluorophenyl)isoxazol-3-yl)methyl)-1,4-dihydropyrazine-2,3-dione]
93	O=C1C(=O)N(C23CC(F)(C2)C3)CCN1Cc1ccc(-c2ccccn2)cn1 [Example 254, 1-([2,3′-bipyridin]-6′-ylmethyl)-4-(3-fluorobicyclo[1.1.1]pentan-1-yl)piperazine-2,3-dione]
9	O=c1c(=O)n([C@H]2C[C@H]3C[C@H]3C2)ccn1Cc1ccc(-n2ccnn2)nn1 [Example 331, 1-((6-(1H-1,2,3-triazol-1-yl)pyridazin-3-yl)methyl)-4-((cis)-bicyclo[3.1.0]hexan-3-yl)-1,4-dihydropyrazine-2,3-dione]
24	O=c1c(=O)n(C23CC(F)(C2)C3)ccn1Cc1ccc(-c2nccs2)nn1 [Example 205, 1-(3-fluorobicyclo[1.1.1]pentan-1-yl)-4-((6-(thiazol-2-yl)pyridazin-3-yl)methyl)-1,4-dihydropyrazine-2,3-dione]
60	O=C1C(=O)N(C2CCC2)CCN1Cc1ccc(-c2cc(Br)ccc2F)nn1 [Example 81, 1-((6-(5-bromo-2-fluorophenyl)pyridazin-3-yl)methyl)-4-cyclobutylpiperazine-2,3-dione]
9	O=C1C(=O)N(C2CCC2)CCN1Cc1cnc(-c2ccccc2F)cn1 [Example 73, 1-cyclobutyl-4-((5-(2-fluorophenyl)pyrazin-2-yl)methyl)piperazine-2,3-dione]
34	CC(C)N1CCN(Cc2ncc(-c3ccccc3)cn2)C(=O)C1=O [Example 286, 1-isopropyl-4-((5-phenylpyrimidin-2-yl)methyl)piperazine-2,3-dione]
10	CC1(n2ccn(Cc3nnc(-c4cccc(F)c4)s3)c(=O)c2=O)CCC1 [Example 82, 1-((5-(3-fluorophenyl)-1,3,4-thiadiazol-2-yl)methyl)-4-(1-methylcyclobutyl)-1,4-dihydropyrazine-2,3-dione]
7	O=c1c(=O)n(C2CCCC2)ccn1Cc1ccc(-n2ccnn2)nn1 [Example 328, 1-((6-(1H-1,2,3-triazol-1-yl)pyridazin-3-yl)methyl)-4-cyclopentyl-1,4-dihydropyrazine-2,3-dione]
170	N#CC1(n2ccn(Cc3ccc(-n4nccn4)nc3)c(=O)c2=O)CC1 [Example 391, 1-(4-((6-(2H-1,2,3-triazol-2-yl)pyridin-3-yl)methyl)-2,3-dioxo-3,4-dihydropyrazin-1(2H)-yl)cyclopropane-1-carbonitrile]
14	O=C1C(=O)N(C2CCCC2)CCN1Cc1cnc(-c2ccccc2)cn1 [Example 271, 1-cyclopentyl-4-((5-phenylpyrazin-2-yl)methyl)piperazine-2,3-dione]
21	O=c1c(=O)n(C23CC(C2)C3)ccn1Cc1cn(-c2cccnc2)nn1 [Example 428, 1-(bicyclo[1.1.1]pentan-1-yl)-4-((1-(pyridin-3-yl)-1H-1,2,3-triazol-4-yl)methyl)-1,4-dihydropyrazine-2,3-dione]
8	O=c1c(=O)n(C2CCC2)ccn1Cc1nnc(-c2ccc(F)cc2)s1 [Example 30, 1-cyclobutyl-4-((5-(4-fluorophenyl)-1,3,4-thiadiazol-2-yl)methyl)-1,4-dihydropyrazine-2,3-dione]
995	O=C1C(=O)N(C23CC(F)(C2)C3)CCN1Cc1ccc(-n2ccnn2)cn1 [Example 263, 1-((5-(1H-1,2,3-triazol-1-yl)pyridin-2-yl)methyl)-4-(3-fluorobicyclo[1.1.1]pentan-1-yl)piperazine-2,3-dione]
57	O=C1C(=O)N(C2CCCC2)CCN1Cc1ccc(-c2ccccc2)[n+]([O-])c1 [Example 267, 5-((4-cyclopentyl-2,3-dioxopiperazin-1-yl)methyl)-2-phenylpyridine 1-oxide]
868	O=c1c(=O)n(C23CC(F)(C2)C3)ccn1Cc1ccc(-n2ccnn2)cn1 [Example 262, 1-((5-(1H-1,2,3-triazol-1-yl)pyridin-2-yl)methyl)-4-(3-fluorobicyclo[1.1.1]pentan-1-yl)-1,4-dihydropyrazine-2,3-dione]
22	O=c1c(=O)n(C2(CF)CC2)ccn1Cc1ccc(-n2cccn2)nc1 [Example 231, 1-((6-(1H-pyrazol-1-yl)pyridin-3-yl)methyl)-4-(1-(fluoromethyl)cyclopropyl)-1,4-dihydropyrazine-2,3-dione]

EC50 [nM]	Compound
15	O=c1c(=O)n(C2CCCC2)ccn1Cc1ncc(-c2ccccc2)cn1 [Example 337, 1-cyclopentyl-4-((5-phenylpyrimidin-2-yl)methyl)-1,4-dihydropyrazine-2,3-dione]
7	O=c1c(=O)n(C23CC(C2)C3)ccn1Cc1cc(-c2ccccn2)no1 [Example 172, 1-(bicyclo[1.1.1]pentan-1-yl)-4-((3-(pyridin-2-yl)isoxazol-5-yl)methyl)-1,4-dihydropyrazine-2,3-dione]
20	O=C1C(=O)N(C2CCCC2)CCN1Cc1ccc(N2CC3CC3C2)nn1 (stereo not drawn) [Example 320, 1-((6-(3-azabicyclo[3.1.0]hexan-3-yl)pyridazin-3-yl)methyl)-4-cyclopentylpiperazine-2,3-dione]
70	CCOc1ccc(CN2CCN(C3CCCC3)C(=O)C2=O)nn1 [Example 340, 1-cyclopentyl-4-((6-ethoxypyridazin-3-yl)methyl)piperazine-2,3-dione]
20	CC(c1cnc(-c2ccccc2)cn1)N1CCN(C2CCC2)C(=O)C1=O (stereo not drawn) [Example 108, 1-cyclobutyl-4-(1-(5-phenylpyrazin-2-yl)ethyl)piperazine-2,3-dione]
40	O=C1C(=O)N(C23CC(F)(C2)C3)CCN1Cc1ccc(-c2cccnc2)nn1 [Example 241, 1-(3-fluorobicyclo[1.1.1]pentan-1-yl)-4-((6-(pyridin-3-yl)pyridazin-3-yl)methyl)piperazine-2,3-dione]
5	O=c1c(=O)n(C2CCC2)ccn1Cc1ccc(-n2ccnn2)nc1 [Example 410, 1-((6-(1H-1,2,3-triazol-1-yl)pyridin-3-yl)methyl)-4-cyclobutyl-1,4-dihydropyrazine-2,3-dione]
11	O=C1C(=O)N(C2CCCC2)CCN1Cc1cnc(-c2ccccc2)nn1 [Example 103, 1-cyclopentyl-4-((3-phenyl-1,2,4-triazin-6-yl)methyl)piperazine-2,3-dione]
24	O=C1C(=O)N(C2CCC2)CCN1Cc1ccc(-n2ccnn2)nc1 [Example 109, 1-((6-(1H-1,2,3-triazol-1-yl)pyridin-3-yl)methyl)-4-cyclobutylpiperazine-2,3-dione]
10	O=c1c(=O)n(C23CC(C2)C3)ccn1Cc1ccc(-n2ccnn2)nn1 [Example 404, 1-((6-(1H-1,2,3-triazol-1-yl)pyridazin-3-yl)methyl)-4-(bicyclo[1.1.1]pentan-1-yl)-1,4-dihydropyrazine-2,3-dione]
6	O=c1c(=O)n(C23CC(C2)C3)ccn1Cc1nnc(-c2ccc(F)cc2)s1 [Example 36, 1-(bicyclo[1.1.1]pentan-1-yl)-4-((5-(4-fluorophenyl)-1,3,4-thiadiazol-2-yl)methyl)-1,4-dihydropyrazine-2,3-dione]
16	O=C1C(=O)N(C2CCCC2)CCN1Cc1ccc(-c2cncs2)nn1 [Example 11, 1-cyclopentyl-4-((6-(thiazol-5-yl)pyridazin-3-yl)methyl)piperazine-2,3-dione]
5	O=C1C(=O)N(C2CCC2)CCN1Cc1nnc(-c2cccc(F)c2)s1 [Example 27, 1-cyclobutyl-4-((5-(3-fluorophenyl)-1,3,4-thiadiazol-2-yl)methyl)piperazine-2,3-dione]
10	O=C1C(=O)N(C2CCC2)CCN1Cc1ccc(-c2ccccc2F)nn1 [Example 1, 1-cyclobutyl-4-((6-(2-fluorophenyl)pyridazin-3-yl)methyl)piperazine-2,3-dione]
130	N#CC1(n2ccn(Cc3cn(-c4cccnc4)nn3)c(=O)c2=O)CC1 [Example 431, 1-(2,3-dioxo-4-((1-(pyridin-3-yl)-1H-1,2,3-triazol-4-yl)methyl)-3,4-dihydropyrazin-1(2H)-yl)cyclopropane-1-carbonitrile]
49	O=C1C(=O)N(C2CCCC2)CCN1CCc1cc2ccccc2nn1 [Example 269, 1-(2-(cinnolin-3-yl)ethyl)-4-cyclopentylpiperazine-2,3-dione]
10	CC1(n2ccn(Cc3cc(-c4ccccc4)no3)c(=O)c2=O)CCC1 [Example 181, 1-(1-methylcyclobutyl)-4-((3-phenylisoxazol-5-yl)methyl)-1,4-dihydropyrazine-2,3-dione]
48	O=C1C(=O)N(C2(CF)CC2)CCN1Cc1ccc(-c2ccccc2F)nn1 [Example 195, 1-(1-(fluoromethyl)cyclopropyl)-4-((6-(2-fluorophenyl)pyridazin-3-yl)methyl)piperazine-2,3-dione]
38	O=c1c(=O)n(C23CC(F)(C2)C3)ccn1Cc1ccc(-n2ccnn2)nn1 [Example 248, 1-((6-(1H-1,2,3-triazol-1-yl)pyridazin-3-yl)methyl)-4-(3-fluorobicyclo[1.1.1]pentan-1-yl)-1,4-dihydropyrazine-2,3-dione]
